Measured values from the NIST ThermoML archive (doi:10.1016/j.fluid.2005.06.011).
Numbers after ± are expanded uncertainties.

Columns and labels:
[1] = refractive index (Na D-line) (dimensionless); conditions: 308.15 K; 101.33 kPa; Liquid; Standard Abbe refractometry
[2] = 308.15 K; 101.33 kPa; Liquid; Vibrating tube method
[3] = xn = mol fraction of the nth substance listed; conditions: 308.15 K, 101.3 kPa, Liquid
[4] = excess molar enthalpy (molar enthalpy of mixing); xn = mol fraction of the nth substance listed; conditions: 308.15 K, 101.3 kPa, Liquid

## CCCCOC(C)=O [butyl ethanoate]
[1]
  refractive index: 1.3908 ± 0.0012
[2]
  mass density: 865.45 ± 2.3 kg/m3

## Cc1ccccc1C [1,2-dimethylbenzene]
[1]
  refractive index: 1.5031 ± 0.0012
[2]
  mass density: 867.41 ± 2.3 kg/m3

## CCCCOC(C)=O [butyl ethanoate] + C1CCCCC1
[3]; x1 = 0.1062
  excess molar volume: 3.47e-07 ± 2.1e-08 m3/mol
[3]; x1 = 0.1575
  excess molar volume: 4.35e-07 ± 2.1e-08 m3/mol
[3]; x1 = 0.223
  excess molar volume: 5.21e-07 ± 2.2e-08 m3/mol
[3]; x1 = 0.3004
  excess molar volume: 6.04e-07 ± 2.2e-08 m3/mol
[3]; x1 = 0.4851
  excess molar volume: 6.74e-07 ± 2.3e-08 m3/mol
[3]; x1 = 0.4863
  excess molar volume: 6.85e-07 ± 2.3e-08 m3/mol
[3]; x1 = 0.5412
  excess molar volume: 6.54e-07 ± 2.3e-08 m3/mol
[3]; x1 = 0.6489
  excess molar volume: 6.07e-07 ± 2.2e-08 m3/mol
[3]; x1 = 0.735
  excess molar volume: 4.98e-07 ± 2.2e-08 m3/mol
[3]; x1 = 0.7661
  excess molar volume: 4.06e-07 ± 2.1e-08 m3/mol
[3]; x1 = 0.8854
  excess molar volume: 1.95e-07 ± 2e-08 m3/mol
[4]; x1 = 0.1409
  excess molar enthalpy: 0.195 ± 0.00335 kcal/mol
[4]; x1 = 0.1975
  excess molar enthalpy: 0.256 ± 0.0043 kcal/mol
[4]; x1 = 0.2672
  excess molar enthalpy: 0.307 ± 0.00502 kcal/mol
[4]; x1 = 0.3389
  excess molar enthalpy: 0.333 ± 0.0055 kcal/mol
[4]; x1 = 0.4035
  excess molar enthalpy: 0.331 ± 0.0055 kcal/mol
[4]; x1 = 0.4961
  excess molar enthalpy: 0.3 ± 0.00502 kcal/mol
[4]; x1 = 0.5517
  excess molar enthalpy: 0.268 ± 0.00454 kcal/mol
[4]; x1 = 0.6466
  excess molar enthalpy: 0.205 ± 0.00359 kcal/mol
[4]; x1 = 0.7965
  excess molar enthalpy: 0.112 ± 0.00213 kcal/mol
[4]; x1 = 0.8311
  excess molar enthalpy: 0.0947 ± 0.00184 kcal/mol
[4]; x1 = 0.9061
  excess molar enthalpy: 0.0565 ± 0.00124 kcal/mol

## CCCCOC(C)=O [butyl ethanoate] + Cc1ccc(C)cc1
[3]; x1 = 0.0881
  excess molar volume: -8e-08 ± 1e-08 m3/mol
[3]; x1 = 0.163
  excess molar volume: -1.59e-07 ± 1e-08 m3/mol
[3]; x1 = 0.314
  excess molar volume: -2.47e-07 ± 1e-08 m3/mol
[3]; x1 = 0.3481
  excess molar volume: -2.81e-07 ± 1e-08 m3/mol
[3]; x1 = 0.5001
  excess molar volume: -3.16e-07 ± 1e-08 m3/mol
[3]; x1 = 0.6164
  excess molar volume: -3.18e-07 ± 1e-08 m3/mol
[3]; x1 = 0.738
  excess molar volume: -2.82e-07 ± 1e-08 m3/mol
[3]; x1 = 0.7871
  excess molar volume: -2.64e-07 ± 1e-08 m3/mol
[3]; x1 = 0.8758
  excess molar volume: -2.21e-07 ± 1e-08 m3/mol
[3]; x1 = 0.9179
  excess molar volume: -1.71e-07 ± 1e-08 m3/mol
[4]; x1 = 0.0722
  excess molar enthalpy: -0.00356 ± 0.00043 kcal/mol
[4]; x1 = 0.1892
  excess molar enthalpy: -0.00856 ± 0.000526 kcal/mol
[4]; x1 = 0.3182
  excess molar enthalpy: -0.0114 ± 0.00055 kcal/mol
[4]; x1 = 0.359
  excess molar enthalpy: -0.0122 ± 0.000574 kcal/mol
[4]; x1 = 0.4828
  excess molar enthalpy: -0.0138 ± 0.000598 kcal/mol
[4]; x1 = 0.6364
  excess molar enthalpy: -0.0136 ± 0.000598 kcal/mol
[4]; x1 = 0.6512
  excess molar enthalpy: -0.0136 ± 0.000598 kcal/mol
[4]; x1 = 0.7888
  excess molar enthalpy: -0.0107 ± 0.00055 kcal/mol
[4]; x1 = 0.8394
  excess molar enthalpy: -0.00882 ± 0.000526 kcal/mol
[4]; x1 = 0.9169
  excess molar enthalpy: -0.00545 ± 0.000478 kcal/mol

## C1CCCCC1 [cyclohexane]
[1]
  refractive index: 1.4205 ± 0.0012
[2]
  mass density: 764.43 ± 2 kg/m3

## Cc1ccccc1 [toluene]
[1]
  refractive index: 1.4885 ± 0.0012
[2]
  mass density: 852.8 ± 2.2 kg/m3

## CCCCOC(C)=O [butyl ethanoate] + c1ccccc1
[3]; x1 = 0.0901
  excess molar volume: 4.2e-08 ± 9e-09 m3/mol
[3]; x1 = 0.2214
  excess molar volume: 7e-08 ± 1e-08 m3/mol
[3]; x1 = 0.3662
  excess molar volume: 7.6e-08 ± 1e-08 m3/mol
[3]; x1 = 0.4623
  excess molar volume: 6.9e-08 ± 1e-08 m3/mol
[3]; x1 = 0.543
  excess molar volume: 6e-08 ± 9e-09 m3/mol
[3]; x1 = 0.6504
  excess molar volume: 4.4e-08 ± 9e-09 m3/mol
[3]; x1 = 0.7052
  excess molar volume: 3.6e-08 ± 9e-09 m3/mol
[3]; x1 = 0.7601
  excess molar volume: 2.8e-08 ± 9e-09 m3/mol
[3]; x1 = 0.8505
  excess molar volume: 1.7e-08 ± 9e-09 m3/mol
[3]; x1 = 0.937
  excess molar volume: 6e-09 ± 9e-09 m3/mol
[4]; x1 = 0.1269
  excess molar enthalpy: -0.00179 ± 0.000406 kcal/mol
[4]; x1 = 0.2523
  excess molar enthalpy: -0.00335 ± 0.00043 kcal/mol
[4]; x1 = 0.4029
  excess molar enthalpy: -0.005 ± 0.000454 kcal/mol
[4]; x1 = 0.4575
  excess molar enthalpy: -0.00543 ± 0.000478 kcal/mol
[4]; x1 = 0.4958
  excess molar enthalpy: -0.00586 ± 0.000478 kcal/mol
[4]; x1 = 0.5619
  excess molar enthalpy: -0.00631 ± 0.000478 kcal/mol
[4]; x1 = 0.6599
  excess molar enthalpy: -0.00655 ± 0.000478 kcal/mol
[4]; x1 = 0.7279
  excess molar enthalpy: -0.00621 ± 0.000478 kcal/mol
[4]; x1 = 0.7714
  excess molar enthalpy: -0.00586 ± 0.000478 kcal/mol
[4]; x1 = 0.8714
  excess molar enthalpy: -0.00488 ± 0.000454 kcal/mol

## Cc1ccccc1C [1,2-dimethylbenzene] + CCCCOC(C)=O
[3]; x2 = 0.1121
  excess molar volume: -2.8e-08 ± 9e-09 m3/mol
[3]; x2 = 0.1983
  excess molar volume: -6.3e-08 ± 1e-08 m3/mol
[3]; x2 = 0.2744
  excess molar volume: -8.2e-08 ± 1e-08 m3/mol
[3]; x2 = 0.3652
  excess molar volume: -9.7e-08 ± 1e-08 m3/mol
[3]; x2 = 0.4665
  excess molar volume: -1.09e-07 ± 1e-08 m3/mol
[3]; x2 = 0.5691
  excess molar volume: -1.08e-07 ± 1e-08 m3/mol
[3]; x2 = 0.606
  excess molar volume: -1.06e-07 ± 1e-08 m3/mol
[3]; x2 = 0.7502
  excess molar volume: -9e-08 ± 1e-08 m3/mol
[3]; x2 = 0.8041
  excess molar volume: -8.3e-08 ± 1e-08 m3/mol
[3]; x2 = 0.9032
  excess molar volume: -5.6e-08 ± 9e-09 m3/mol
[4]; x2 = 0.0707
  excess molar enthalpy: -0.00215 ± 0.00043 kcal/mol
[4]; x2 = 0.1859
  excess molar enthalpy: -0.00296 ± 0.00043 kcal/mol
[4]; x2 = 0.2214
  excess molar enthalpy: -0.00478 ± 0.000454 kcal/mol
[4]; x2 = 0.3134
  excess molar enthalpy: -0.00621 ± 0.000478 kcal/mol
[4]; x2 = 0.3539
  excess molar enthalpy: -0.00652 ± 0.000478 kcal/mol
[4]; x2 = 0.4773
  excess molar enthalpy: -0.00693 ± 0.000502 kcal/mol
[4]; x2 = 0.5868
  excess molar enthalpy: -0.00717 ± 0.000502 kcal/mol
[4]; x2 = 0.6462
  excess molar enthalpy: -0.00696 ± 0.000502 kcal/mol
[4]; x2 = 0.8002
  excess molar enthalpy: -0.00526 ± 0.000478 kcal/mol
[4]; x2 = 0.8364
  excess molar enthalpy: -0.00454 ± 0.000454 kcal/mol

## Cc1cccc(C)c1 [1,3-dimethylbenzene] + CCCCOC(C)=O
[3]; x2 = 0.1509
  excess molar volume: -7.7e-08 ± 1e-08 m3/mol
[3]; x2 = 0.1651
  excess molar volume: -8.3e-08 ± 1e-08 m3/mol
[3]; x2 = 0.2243
  excess molar volume: -9.4e-08 ± 1e-08 m3/mol
[3]; x2 = 0.314
  excess molar volume: -1.27e-07 ± 1e-08 m3/mol
[3]; x2 = 0.3921
  excess molar volume: -1.42e-07 ± 1e-08 m3/mol
[3]; x2 = 0.5651
  excess molar volume: -1.44e-07 ± 1e-08 m3/mol
[3]; x2 = 0.669
  excess molar volume: -1.31e-07 ± 1e-08 m3/mol
[3]; x2 = 0.8091
  excess molar volume: -9.7e-08 ± 1e-08 m3/mol
[3]; x2 = 0.8816
  excess molar volume: -5.2e-08 ± 9e-09 m3/mol
[3]; x2 = 0.9052
  excess molar volume: -4.3e-08 ± 9e-09 m3/mol
[4]; x2 = 0.1568
  excess molar enthalpy: 0.00237 ± 0.00043 kcal/mol
[4]; x2 = 0.1886
  excess molar enthalpy: 0.00332 ± 0.00043 kcal/mol
[4]; x2 = 0.2879
  excess molar enthalpy: 0.00409 ± 0.000454 kcal/mol
[4]; x2 = 0.4265
  excess molar enthalpy: 0.00523 ± 0.000478 kcal/mol
[4]; x2 = 0.4818
  excess molar enthalpy: 0.00528 ± 0.000478 kcal/mol
[4]; x2 = 0.5375
  excess molar enthalpy: 0.00554 ± 0.000478 kcal/mol
[4]; x2 = 0.6365
  excess molar enthalpy: 0.00559 ± 0.000478 kcal/mol
[4]; x2 = 0.7881
  excess molar enthalpy: 0.00457 ± 0.000454 kcal/mol
[4]; x2 = 0.8286
  excess molar enthalpy: 0.0043 ± 0.000454 kcal/mol
[4]; x2 = 0.9169
  excess molar enthalpy: 0.00284 ± 0.00043 kcal/mol

## c1ccccc1 [benzene]
[1]
  refractive index: 1.4921 ± 0.0012
[2]
  mass density: 862.93 ± 2.3 kg/m3

## Cc1ccc(C)cc1 [1,4-dimethylbenzene]
[1]
  refractive index: 1.4879 ± 0.0012
[2]
  mass density: 847.91 ± 2.2 kg/m3

## CCCCOC(C)=O [butyl ethanoate] + Cc1ccccc1
[3]; x1 = 0.055
  excess molar volume: -1.9e-08 ± 9e-09 m3/mol
[3]; x1 = 0.1581
  excess molar volume: -6e-08 ± 9e-09 m3/mol
[3]; x1 = 0.2744
  excess molar volume: -8.2e-08 ± 1e-08 m3/mol
[3]; x1 = 0.442
  excess molar volume: -1e-07 ± 1e-08 m3/mol
[3]; x1 = 0.5243
  excess molar volume: -1.03e-07 ± 1e-08 m3/mol
[3]; x1 = 0.6231
  excess molar volume: -1.02e-07 ± 1e-08 m3/mol
[3]; x1 = 0.7619
  excess molar volume: -8.9e-08 ± 1e-08 m3/mol
[3]; x1 = 0.849
  excess molar volume: -6.9e-08 ± 1e-08 m3/mol
[3]; x1 = 0.9052
  excess molar volume: -5.1e-08 ± 9e-09 m3/mol
[4]; x1 = 0.152
  excess molar enthalpy: -0.00698 ± 0.000502 kcal/mol
[4]; x1 = 0.1873
  excess molar enthalpy: -0.0086 ± 0.000526 kcal/mol
[4]; x1 = 0.2873
  excess molar enthalpy: -0.012 ± 0.000574 kcal/mol
[4]; x1 = 0.3922
  excess molar enthalpy: -0.0136 ± 0.000598 kcal/mol
[4]; x1 = 0.4465
  excess molar enthalpy: -0.0143 ± 0.000598 kcal/mol
[4]; x1 = 0.502
  excess molar enthalpy: -0.0148 ± 0.000621 kcal/mol
[4]; x1 = 0.543
  excess molar enthalpy: -0.0151 ± 0.000621 kcal/mol
[4]; x1 = 0.6
  excess molar enthalpy: -0.0148 ± 0.000621 kcal/mol
[4]; x1 = 0.7435
  excess molar enthalpy: -0.0124 ± 0.000574 kcal/mol
[4]; x1 = 0.8705
  excess molar enthalpy: -0.0086 ± 0.000526 kcal/mol
[4]; x1 = 0.8898
  excess molar enthalpy: -0.00765 ± 0.000502 kcal/mol

## Cc1cccc(C)c1 [1,3-dimethylbenzene]
[1]
  refractive index: 1.4946 ± 0.0012
[2]
  mass density: 851.53 ± 2.2 kg/m3
